What was measured:
[1] = tested on: HCT-116 human colon tumor xenograft; assay: Compound 2 after oral administration vs. the HCT-116 xenograft model
[2] = tested on: RPMI 8226 (multiple myeloma) human tumor cell line; assay: Cell TiterGlo cell growth inhibition (Test C); assay type: cell-based; settings: 72 hours exposure, ATP content luminescence
Protocol: The RPMI 8226 (multiple myeloma) human tumor cell line was exposed to Compound 2 (free base) (or simply referred to herein throughout as “Compound 2”) at concentrations covering a […] (0.1 nM -100 nM) with an exposure time of 72 hours and experimental endpoint of cell growth inhibition as determined by a Cell TiterGlo luminescence assay (Promega) for ATP content. At least two independent experiments were conducted. The results were plotted and trend lines were graphed. […] Exposure to Compound 2 produced exponential killing of cells in a manner consistent with potent inhibition of a critical molecular target.

[3] = tested on: Human HCT-15 Colon Tumor Xenograft Model; assay: Test D xenograft, Compound 2 free base; assay type: in vivo, nu/nu mice; settings: for Increase in Life Span (ILS) / Tumor Growth Delay T-C / Tumor Growth Inhibition T/C (tumor volume): qod × 3 for 2 cycles
[4] = In vitro plasma binding (Example 22); assay type: in vitro ADME; settings: in vitro in mouse, rat, dog, and human
Protocol: (§1) The in vitro and in vivo activity of compound 2 and two of its metabolites (compound 5 and compound 6) were explored and compared with the activity of camptothecin Top1 inhibitors. […] In human HCT-116 colon ca, HT-29 colon ca and NCI-H460 NSCLC cells the concentration response for compound 2, compound 5 and compound 6 were the same. […] Compound 2 was administered intravenously on a QODx3 schedule for 2 cycles.

[5] = tested on: human HCT-116 colon ca, HT-29 colon ca and NCI-H460 NSCLC cells; assay: 72 hour exposure concentration response in tumor cells (Example 22); assay type: cell-based; settings: range over HCT-116, HT-29 and NCI-H460 cells and the three compounds
Protocol: as §1

[6] = tested on: Human DLD-1 Colon Tumor Xenograft Model; assay: Test D xenograft, Compound 2 free base; assay type: in vivo, nu/nu mice
[7] = tested on: Human LOX-IMVI Melanoma Tumor Xenograft Model; assay: Test D xenograft, Compound 2 free base; settings: qod × 3 for 2 cycles
[8] = tested on: KB-V1 MDR1+ KB3-1 Subline; assay: Human tumor cell CFU assay (Test B); assay type: cell-based; settings: Homo sapiens; colony formation, continuous exposure 7-9 days
Protocol: (§2) For human tumor cell CFU assays, the cell lines which grow as monolayers, MDA-MB-231, HCT116, HT29, NCI-H460, KB3-1 and KBV-1 were grown in RPMI medium (Invitrogen/Gibco, Grand Island, N.Y.) supplemented with 5% fetal bovine serum (Invitrogen/Gibco, Grand Island, NY). The RPMI-8226 cell line grows in suspension.
(§3) For experiments, human tumor cells (1 103) were plated in 6-well plates in medium supplemented with 5% or 10% fetal bovine serum. The compounds were tested in concentrations over the range from 0.01 to 100 nanomolar in half-log intervals covering […] along with untreated control wells. In later experiments some cases the concentration ranges were refined to focus on the region of interest in the response curves. Each compound concentration was tested in duplicate wells. Cultures were exposed to the compounds continuously for 7-9 days at 37° C. in a humidified atmosphere of 5% carbon dioxide balance air. Each experiment was performed three independent times. Colonies were defined as clusters containing 30 or more cells.
(§4) For the monolayer cultures, colonies were visualized by staining with a preformulated crystal violet solution (Fisher Cat #291-472) which contained 0.41% crystal violet, 12% ethanol balance deionized water. To visualize the colonies, the medium was removed by aspiration; the monolayer was rinsed once with phosphate buffered saline which was removed by aspiration. Three drops of crystal violet solution was added to each well and the 6-well plate was rotated so that the crystal violet solution covered the surface area of each well. After 5 minutes exposure time, the wells were rinsed twice with phosphate buffered saline and the colonies were visible.
(§5) The values were expressed as the mean values with lower and upper 95% confidence intervals in nanomolar concentrations.

[9] = tested on: HCT116 Human Colon Carcinoma; assay: Human tumor cell CFU assay (Test B); assay type: cell-based; settings: Homo sapiens, HCT-116, colony formation, continuous exposure 7-9 days
Protocol: as §2, §3, §4, §5

[10] = tested on: NCI-H460 Human Non-small Cell Lung Carcinoma; assay: Human tumor cell CFU assay (Test B); assay type: cell-based; settings: Homo sapiens, NCI-H460, colony formation, continuous exposure 7-9 days
Protocol: as §2, §3, §4, §5

[11] = tested on: HT29 Human Colon Carcinoma; assay: Human tumor cell CFU assay (Test B); assay type: cell-based; settings: Homo sapiens, HT-29, colony formation, continuous exposure 7-9 days
Protocol: as §2, §3, §4, §5

[12] = tested on: KBH5.0 BCRP+ KB3-1 Subline; assay: Human tumor cell CFU assay (Test B); assay type: cell-based; settings: Homo sapiens, KB 3-1, colony formation, continuous exposure 7-9 days
Protocol: as §2, §3, §4, §5

[13] = tested on: MDA-MB-231 Human Breast Carcinoma; assay: Human tumor cell CFU assay (Test B); assay type: cell-based; settings: Homo sapiens, MDA-MB-231, colony formation, continuous exposure 7-9 days
Protocol: as §2, §3, §4, §5

[14] = tested on: KB3-1 HeLa Human Cervical Carcinoma; assay: Human tumor cell CFU assay (Test B); assay type: cell-based; settings: Homo sapiens, colony formation, continuous exposure 7-9 days
Protocol: as §2, §3, §4, §5

[15] = 1.36 mg/kg/day PO, qod×3 weekly for 2 cycles
[16] = 2.72 mg/kg/day PO, qod×3 weekly for 2 cycles
[17] = PO dosages (0.68, 1.36, 2.72 mg/kg/day, qod×3 weekly for 2 cycles)
[18] = 1 mg/kg/day IV, qod × 3 for 2 cycles
[19] = 4 mg/kg/day IV/QODx3 for 2 cycles
[20] = read-out: IC50 Values (95% Lower and Upper Confidence Intervals)
[21] = read-out: IC90 Values (95% Lower and Upper Confidence Intervals)

For `CNCCn1c(=O)c2cc(OC)c(OC)cc2c2cnc3cc4c(cc3c21)OCO4` [Compound 2, 8,9-dimethoxy-2,3-methylenedioxy-5-[2-(N-methylamino)ethyl]-5H-dibenzo[c,h]1,6-naphthyridin-6-one], the TGD [1, 15] was “no effect on TGD”, the “TGI (T/C)” value [1, 15] was 57.6% and the ILS [1, 16] was 1.5 fold. For the same molecule, the “TGD (T-C)” value [1, 16] was 18 days, the toxic deaths [1, 17] was “no toxic deaths” and the weight loss [1, 17] was under 20%. For the same molecule, the IC50 ([2]; read-out: IC50 concentration) was 3.4 nM, the IC90 ([2]; read-out: IC90 concentration) was 30 nM and the “Increase in Life Span (ILS)” value ([3]; 1 mg/kg/day IV) was 1.3x. For the same molecule, the “Tumor Growth Delay T-C” value ([3]; 1 mg/kg/day IV) was 14 days, the “Tumor Growth Inhibition T/C (tumor volume)” value (“Tumor Growth Inhibition T/C” below) ([3]; 1 mg/kg/day IV) was 37.1% and the “Increase in Life Span (ILS)” value ([3]; 2 mg/kg/day IV) was 1.8x. The “Tumor Growth Delay T-C” value ([3]; 2 mg/kg/day IV) was 35 days, the “Tumor Growth Inhibition T/C” value ([3]; 2 mg/kg/day IV) was 8.6% and the “maximum body weight loss” value ([3]; high dosage, IV QODx3 for 2 cycles) was 25.7%. For the same molecule, the plasma binding [4] was 88-93%, the IC50 ([5]; read-out: IC50 concentrations) was 0.5 to 0.65 nM and the IC90 ([5]; read-out: IC90 concentrations) was 1.8 to 2 nM. For the same molecule, the “Increase in Life Span (ILS)” value [6, 18] was 1.2x, the “Tumor Growth Delay T-C” value [6, 18] was 8 days and the “Tumor Growth Inhibition T/C” value [6, 18] was 51.3%. The “ILS (T/C)” value [6, 19] was 1.2x, the “TGD (T-C)” value [6, 19] was 8 days and the “Increase in Life Span (ILS)” value ([7]; 1 mg/kg/day IV) was 1.1x. The “Tumor Growth Delay T-C” value ([7]; 1 mg/kg/day IV) was 2 days, the “Tumor Growth Inhibition T/C” value ([7]; 1 mg/kg/day IV) was 89.4% and the “Increase in Life Span (ILS)” value ([7]; 2 mg/kg/day IV) was 2.8x. The “Tumor Growth Delay T-C” value ([7]; 2 mg/kg/day IV) was 25 days, the “Tumor Growth Inhibition T/C” value ([7]; 2 mg/kg/day IV) was 66.1% and the “Tumor Growth Inhibition T/C” value ([7]; 4 mg/kg/day IV) was 39.1%. The IC50 [8] was 2 nM, the IC90 [8] was 8.3 nM and the IC50 [9, 20] was 0.9 nM. It also gave an IC90 [9, 21] of 2.8 nM, an IC50 [10, 20] of 1.2 nM and an IC90 [10, 21] of 5 nM. For the same molecule, the IC50 [11, 20] was 0.15 nM, the IC90 [11, 21] was 0.9 nM and the IC90 [12] was 3 nM. It also gave an IC50 [12, 20] of 1 nM, an IC50 [13, 20] of 0.2 nM and an IC90 [13, 21] of 0.7 nM. It also gave an IC50 [14] of 1.7 nM and an IC90 [14, 21] of 7.7 nM.

— US20120004235A1, “METHODS TO TREAT CANCER” (Rutgers, The State University of New Jersey, priority 2009, published 2012)
